Consider 12 compounds from PMC8053989 (Proceedings of the National Academy of Sciences of the …, 2021).

In series [1] the test system is SARS-CoV-2 replicon. Description: microbe, parasite or virus in culture. The series is classed as cell-based. The note with it: Calu-1 cells, compound alone.
Series [2] concerns SARS-CoV-2 replicon. In words: microbe, parasite or virus in culture. The series is classed as cell-based. The note with it: A549 cells, compound alone.
For series [3], the system named is SARS-CoV-2 replicon. In words: microbe, parasite or virus in culture. Type of series: cell-based. The note with it: for effect of p-gp inhibitors on potency: in the presence of CP-100356 or elacridar.
For series [4], the system named is SARS-CoV-2 replicon. Type of series: cell-based. The note with it: concentrations up to 2 µM.
Another series relates to 293T cells. Description: Cytotoxicity assay (CellTiter-Glo) in replicon-transfected cells. The note with it: range of concentrations tested.
In series [5] the test system is SARS-CoV-2 replicon. Description: microbe, parasite or virus in culture. Type of series: cell-based.
Series [6] relates to SARS-CoV-2 replicon. Description: microbe, parasite or virus in culture. Type of series: cell-based. The note with it: Huh-7.5 cells.
Series [7] relates to wild-type (wt) SARS-CoV-2. The arrangement: method as in doi:10.1101/2020.08.28.272880. The note with it: ACE2 stably transfected A549 cells; read-out: EC50 against wild-type SARS-CoV-2 infection; cited from earlier work.
[8] abbreviates: Severe acute respiratory syndrome coronavirus 2.
[9] abbreviates: Severe acute respiratory syndrome coronavirus 2, Vero cells, compound alone.
Setting [10] is: Severe acute respiratory syndrome coronavirus 2, HEK-293T, 30 h, read-out: EC50.
[11] abbreviates: Severe acute respiratory syndrome coronavirus 2, Huh7.5.

SMILES strings stand for the structures. Like-named read-outs stand apart in the source and are kept apart here.

Turning to `COc1cc2c(cc1OC)CN(CCc1ccc(NC(=O)c3cccc4c(=O)c5cccc(OC)c5[nH]c34)cc1)CC2` [Elacridar], the EC50 in the series with SARS-CoV-2 replicon [1] (setting [8]) is more than 8400 nM; in the series on SARS-CoV-2 replicon [2] (setting [8]) it was more than 4670 nM; with SARS-CoV-2 replicon [3] (setting [9]), more than 4670 nM. Moreover, in the series on SARS-CoV-2 replicon [4], the “antiviral activity when tested alone” value is on record as “No antiviral activities were observed”.
Take `CC(C)C[C@H](NC(=O)OCc1ccccc1)C(=O)N[C@@H](C[C@@H]1CCNC1=O)C(O)S(=O)(=O)[O-].[Na+]` (stereo partly drawn) [GC376]: the cytotoxicity entry in the series with 293T cells is reported as “No cytotoxicity was detected”. Also, the “effect of p-gp inhibitors on potency” value in the series on SARS-CoV-2 replicon [3] (Vero cells) was “slight increase of the activities”.
On to `CC(C)C[C@H](NC(=O)OCc1ccccc1)C(=O)N[C@@H](CC1CCNC1=O)C(O)S(=O)(=O)O` (stereo partly drawn) [GC376], for which the EC50 stood at 20.8 ± 5.4 nM in the series with SARS-CoV-2 replicon [5] (read-out: EC50); 22 nM in the series with SARS-CoV-2 replicon [5] (read-out: potency (EC50) in inhibiting SARS-CoV-2 replicon replication, percent GFP signal); 29.2 nM in the series on SARS-CoV-2 replicon [5] (read-out: potency (EC50) in inhibiting SARS-CoV-2 replicon replication, percent luciferase activity); 19.8 ± 2 nM in the series on SARS-CoV-2 replicon [1]; 570 ± 182 nM in the series with SARS-CoV-2 replicon [2]; 237 ± 74 nM in the series with SARS-CoV-2 replicon [3] (Vero cells, compound alone). The compound also gave an EC50 in the series on SARS-CoV-2 replicon [6] of 19.4 ± 4.9 nM.
`CC(C)(C)NC(=O)N[C@H](C(=O)N1C[C@H]2[C@@H]([C@H]1C(=O)NC(CC1CCC1)C(=O)C(N)=O)C2(C)C)C(C)(C)C` (stereo partly drawn) [MK-3034]: the 50% effective concentration (EC50) in the series with SARS-CoV-2 replicon [5] (setting [10]) was determined as 3550 nM; in the series with SARS-CoV-2 replicon [1] (setting [8]) it was 4790 nM; in the series on SARS-CoV-2 replicon [2] (setting [8]) it was 19900 nM; in the series on SARS-CoV-2 replicon [3] (setting [9]) it was 16600 nM. Further, the “effect of p-gp inhibitors on potency” value with SARS-CoV-2 replicon [3] (Vero cells) was “slight increase of the activities”.
`COc1cccc2[nH]c(C(=O)N[C@@H](CC(C)C)C(=O)N[C@@H](C[C@@H]3CCNC3=O)C(=O)CO)cc12` [PF-00835231]: the concentration for a half-maximal effect (EC50) was 75.2 ± 19.1 nM in the series with SARS-CoV-2 replicon [5] (read-out: EC50); 24.7 ± 3.8 nM in the series with SARS-CoV-2 replicon [1]; 76.3 ± 16.2 nM in the series on SARS-CoV-2 replicon [2]; 2190 nM with SARS-CoV-2 replicon [3] (Vero cells, compound alone); 175 ± 56 nM in the series with SARS-CoV-2 replicon [6]. Besides, the “effect of p-gp inhibitors on potency” value with SARS-CoV-2 replicon [3] (Vero cells) is given as “dramatically increased the potency”.
As for `CCC(CC)COC(=O)[C@H](C)N[P@](=O)(OC[C@H]1O[C@@](C#N)(c2ccc3c(N)ncnn23)[C@H](O)[C@@H]1O)Oc1ccccc1` [GS-5734], the EC50 was 15.6 ± 5.1 nM in the series on SARS-CoV-2 replicon [5] (setting [10]); 31.5 ± 23 nM with SARS-CoV-2 replicon [1] (setting [8]); 184 nM with SARS-CoV-2 replicon [2] (setting [8]); 2240 nM in the series on SARS-CoV-2 replicon [3] (setting [9]); 18.9 nM in the series with SARS-CoV-2 replicon [6] (setting [11]); 442 nM in series [7].
As for `CC(C)C[C@H](NC(=O)c1cc2ccccc2o1)C(=O)N[C@H]1CC[C@@H](C)N(S(=O)(=O)c2ccccn2)CC1=O` [Relacatib], the concentration for a half-maximal effect (EC50) with SARS-CoV-2 replicon [5] (setting [10]), with SARS-CoV-2 replicon [1] (setting [8]), in the series on SARS-CoV-2 replicon [2] (setting [8]) and in the series with SARS-CoV-2 replicon [3] (setting [9]) was more than 42000 nM in each case.
Consider `N=C(N)c1ccc2cc(OC(=O)c3ccc(N=C(N)N)cc3)ccc2c1` [Nafamostat], for which the EC50 was more than 42000 nM in the series with SARS-CoV-2 replicon [5] (setting [10]); more than 42000 nM in the series on SARS-CoV-2 replicon [1] (setting [8]); more than 42000 nM in the series on SARS-CoV-2 replicon [2] (setting [8]); more than 42000 nM in the series on SARS-CoV-2 replicon [3] (Severe acute respiratory syndrome coronavirus 2, Vero C1008, Vero E6 cells (so in the source)).
Consider `Cc1cccc(/C=N/Nc2cc(N3CCOCC3)nc(OCCc3ccccn3)n2)c1` [Apilimod], for which the EC50 in the series on SARS-CoV-2 replicon [1] (setting [8]) and in the series with SARS-CoV-2 replicon [6] (setting [11]) was more than 42000 nM throughout.
Take `CC(C)C[C@H](NC(=O)OCc1ccccc1)C(=O)N[C@H](C=O)C[C@@H]1CCNC1=O` [GC373]: the EC50 in the series on SARS-CoV-2 replicon [5] (read-out: EC50) is 20.3 ± 5.3 nM; in the series with SARS-CoV-2 replicon [1], 30.1 ± 5.8 nM; in the series with SARS-CoV-2 replicon [2], 539 ± 69 nM; in the series with SARS-CoV-2 replicon [3] (Vero cells, compound alone) it was 309 ± 43 nM. In the series with SARS-CoV-2 replicon [3] (Vero cells), the “effect of p-gp inhibitors on potency” value is “slight increase of the activities”.
As for `N#C[C@@]1(c2ccc3c(N)ncnn23)O[C@H](CO)[C@@H](O)[C@H]1O` [GS-441524], the EC50 with SARS-CoV-2 replicon [5] (setting [10]) worked out at 603 ± 131 nM; with SARS-CoV-2 replicon [5] (Severe acute respiratory syndrome coronavirus 2, HEK-293T, 30 h, read-out: potency (EC50) in inhibiting SARS-CoV-2 replicon replication, percent GFP signal), 645 nM; in the series with SARS-CoV-2 replicon [5] (Severe acute respiratory syndrome coronavirus 2, HEK-293T, 30 h, read-out: potency (EC50) in inhibiting SARS-CoV-2 replicon replication, percent luciferase activity), 503 nM; in the series with SARS-CoV-2 replicon [1] (setting [8]), 1330 nM; in the series with SARS-CoV-2 replicon [2] (setting [8]), 1470 nM; in the series with SARS-CoV-2 replicon [3] (setting [9]), 302 ± 20 nM. In the series with SARS-CoV-2 replicon [6] (setting [11]), this compound registered an EC50 of 1030 nM. Further, the cytotoxicity entry in the series on 293T cells is “No cytotoxicity was detected”.
In the case of `CN(C)C(=O)COC(=O)Cc1ccc(OC(=O)c2ccc(NC(=N)N)cc2)cc1` [Camostat], the EC50 with SARS-CoV-2 replicon [5] (setting [10]), with SARS-CoV-2 replicon [1] (setting [8]), in the series on SARS-CoV-2 replicon [2] (setting [8]) and in the series with SARS-CoV-2 replicon [3] (setting [9]) was more than 42000 nM throughout.
